Test results published in US20030203969A1, “Pharmaceutically active aromatic guanylhydrazones” (priority 2000, published 2003).

Assays:
[1] = target: T1, deoxyhypusine synthase (DHS) (Homo sapiens, UniProt P49366); assay: In vitro DHS screening assay (hypusine formation on eIF-5A); format: biochemical
T1 construct: made in house; host or cells: E. coli BL21 (DE3), pGex vector
T1 sequence (P49366 1-369): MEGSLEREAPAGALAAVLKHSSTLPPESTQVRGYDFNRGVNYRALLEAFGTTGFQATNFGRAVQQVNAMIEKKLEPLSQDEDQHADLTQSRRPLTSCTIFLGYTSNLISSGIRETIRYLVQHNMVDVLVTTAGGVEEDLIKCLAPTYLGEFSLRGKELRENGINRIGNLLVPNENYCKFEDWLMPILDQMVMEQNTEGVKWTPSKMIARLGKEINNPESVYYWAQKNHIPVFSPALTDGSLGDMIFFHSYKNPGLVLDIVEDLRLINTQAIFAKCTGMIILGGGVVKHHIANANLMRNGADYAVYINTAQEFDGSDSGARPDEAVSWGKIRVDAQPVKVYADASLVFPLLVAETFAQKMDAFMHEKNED

[2] = tested on: T-cell-tropic HIV-1NL4/3 strain; assay: Inhibition of T-cell-tropic HIV-1 NL4/3 replication in de novo infected Jurkat cells (p24 antigen); format: cell-based
Protocol: (§1) HIV replication was measured either by p24 HIV Antigen Capture Assay Kit (ELISA; HIVAG-1 Monoclonal kit BIA011; Abbott) following the manufacturer's recommendation, or by using the Quantiplex HIV-1 RNA 3.0 Assay (bDNA) system (Chiron Diagnostics). The latter assay is a signal amplification nucleic acid probe assay (employing a sandwich nucleic acid hybridization procedure) for direct quantitation of HIV RNA in human plasma. There, in brief, HIV-1 is first concentrated from plasma by centrifugation. After release of genomic HIV-1 RNA from the virions, the RNA is captured to a microwell by a set of specific, synthetic oligonucleotide capture probes. A set of target probes hybridize to both the viral RNA and the pre-amplifier probes. The capture probes, comprised of 17 individual capture extenders, and the target probes, comprised of 81 individual target extenders, bind to different regions of the pol gene of the viral RNA. The amplifier probe hybridizes to the pre-amplifier forming a branched DNA (bDNA) complex. Then, multiple copies of an alkaline phosphatase labeled probe are hybridized to this immobilized bDNA complex. Detection is achieved by incubating the entire complex with a chemoluminescent substrate. Light emission is directly proportional to the amount of HIV-1 RNA present in each sample, and results are recorded as relative light units by an appropriate analyzer.
(§2) Jurkat cells (species: human T-cell leukemia; special characteristics: cells are permissive for growth of T-cell tropic HIV strains; source:ATCC Cat.No. TIB 152) or PM1 cells (species: clonal derivative of human HUT 78 cells; special characteristics: cells are permissive for growth of macrophage-tropic and T-cell tropic HIV strains; source: Dr. Marvin Reitz, courtesy of the NIH AIDS Research and Reference Reagent Program Cat.No. 3038) were stimulated with Phytohemagglutinin (PHA-P, Product No. L9132 from Sigma) in a concentration of 2 μg/ml (1.5×10^6 cells/ml) and Hexadimethrine Bromide (Polybrene, Product No. H9268 from Sigma) in a concentration of 2 μg/ml (1.5×10^6 cells/ml) in RPMI 1640 medium containing 10% fetal calf serum (FCS, Pansystems GmbH) and antibiotics for 3 days.
(§3) For HIV-1 infection, 5×10^7 cells were resuspended in 500 μl culture medium without test drugs and incubated in a 50 ml blue-cap-tube at 37° C. for 5 hrs with HIV-1 high titer viral stocks. Jurkat cells were infected with the T-cell tropic strain HIV-1 NL4-3, PM1 cells with the macrophage tropic strain HIV-1 Ba-L (both from the NIH AIDS Research and Reference Reagent Program). After infection, cells were washed twice with PBS without Ca^2+ and Mg^2+ to avoid false positive p24 antigen determination. Cells were resuspended, and identical aliquots (1×10^6/ml) of infected cells were further cultured in 10 ml medium with test drugs at various concentrations, or in medium with DMSO as control for calculation of the inhibition of virus replication (in %].
(§4) Culture medium was changed and cells were split at days 3 and 7 of the experiments. Viability of the cells (Trypan-blue staining), cell counts and p24 antigen levels were determined at days 3, 7 and 10 of the experiments. No significant differences in cell viability were observed (˜85-90% living cells).
(§5) At day 10 of infection, the HIV strains replicated vigorously in untreated cultures. Numbers describe percent inhibition of HIV replication as compared to control experiments.

E. Coli XL-1 blue strain = assay: Growth assay for E. coli (optical density at 610 nm); format: cell-based; conditions: LB medium, 37° C., one day; read-out: IC50 (μM) E. coli proliferation
Protocol: We used the E. Coli XL-1 blue strain (Stratagene) for the investigation of antibacterial activity. During this experiments LB medium was used for E. coil growth. LB was prepared as follows: 1% trypton (weight/volume), 0.5% Yeast extract (weight/volume), and 1.5% NaCl (weight/volume) were dissolved in water and autoclaved. The media contained the inhibitor at 100 μM, 10 μM, or 1 μM concentrations, respectively.
The assay was performed as follows: bacteria were seeded to 96-well plates containing the respective inhibitors. The bacteria-containing plates were incubated at 37° C. for one day. After incubation time, E. coli growth was assayed by the measurement of the optical density at 610 nm wavelength.

[3] = tested on: macrophage-tropic HIV-1Ba-L strain; assay: Inhibition of macrophage-tropic HIV-1 Ba-L replication in de novo infected PM1 cells (p24 antigen); format: cell-based
Protocol: as §1, §2, §3, §4, §5

Row | Compound | inhibition of the hypusine formation on the elF-5A protein [1] | percent inhibition of HIV replication as compared to control ([2]; HIV-1 NL4/3, 1.0 μM, d7) [%] | percent inhibition of HIV replication as compared to control ([2]; HIV-1 NL4/3, 1.0 μM, d10) [%] | percent inhibition of HIV replication as compared to control ([2]; HIV-1 NL4/3, 5.0 μM, d7) [%] | percent inhibition of HIV replication as compared to control ([2]; HIV-1 NL4/3, 5.0 μM, d10) [%] | IC50 (E. Coli XL-1 blue strain) [µM] | percent inhibition of HIV replication as compared to control ([3]; 1.0 μM, d7) [%] | percent inhibition of HIV replication as compared to control ([3]; 1.0 μM, d10) [%] | percent inhibition of HIV replication as compared to control ([3]; 5.0 μM, d7) [%] | percent inhibition of HIV replication as compared to control ([3]; 5.0 μM, d10) [%]
1 | C/C(=N\N=C(N)N)c1ccc(NC(=O)Nc2cc(/C(C)=N/N=C(N)N)cc(/C(C)=N/N=C(N)N)c2)cc1 [Compound 1, N-(4-acetylphenyl)-N′-(3,5-diacetylphenyl)urea tris (amidinohydrazone)] | potent inhibitors | 15 | 5 | 52 | 31 | < 0.1 | 23 | 0 | 72 | 51
2 | CC(=NNC(=N)N)c1cc(NC(=O)CCC(=O)Nc2cc(C(C)=NNC(=N)N)cc(C(C)=NNC(=N)N)c2)cc(C(C)=NNC(=N)N)c1 [Compound 5, N,N′-bis (3,5-diacetylphenyl) butane diamide tetrakis (amidinohydrazone)] | potent inhibitors | 26 | 0 | 70 | 16 | < 0.1 | 48 | 35 | 97 | 86
